Assay results taken from patent US11440923B2, “Substituted macrocyclic indole derivatives” (Bayer Aktiengesellschaft, priority 2017, dated 2022).
Structures can show the parent of a compound that is named as a salt. Where two headings read alike, the source gives them in different places.

How the values were obtained:
[1] = tested on: SUDHL5 cells; test: Induction of cytotoxicity in SUDHL5 cells (Assay 6); format: cell-based; details: 5 h, CellTiter-Glo; read-out: Cytotox SUDHL5 IC50 (median)
In short: (§1)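 Run alongside apoptosis measurements, this cytotoxicity readout used cells treated with compound for 5 h at 37 °C and quantified ATP-based luminescence with CellTiter-Glo.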

[2] = biological target: MCL1 protein / biotinylated BIM BH3 peptide in RKO cells (Homo sapiens (Human), UniProt Q07820); test: PIxEL: protein-protein interaction in permeabilized cells by ELISA (Assay 5); format: cell-based; details: PIxEL IC50 (median)
Sequence of MCL1 protein / biotinylated BIM BH3 peptide in RKO cells (Q07820 whole entry): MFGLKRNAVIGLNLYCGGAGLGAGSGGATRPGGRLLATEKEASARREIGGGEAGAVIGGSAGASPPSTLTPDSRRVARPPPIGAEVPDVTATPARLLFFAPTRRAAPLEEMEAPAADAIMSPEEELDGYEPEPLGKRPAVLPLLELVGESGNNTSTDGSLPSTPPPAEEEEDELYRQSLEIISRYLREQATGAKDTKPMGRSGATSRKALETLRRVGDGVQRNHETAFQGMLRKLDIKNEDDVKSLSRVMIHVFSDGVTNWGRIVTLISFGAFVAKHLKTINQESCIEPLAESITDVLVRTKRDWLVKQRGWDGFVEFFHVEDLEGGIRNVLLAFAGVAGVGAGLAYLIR
Protocol: PIxEL: Protein-Protein Interaction in Permeabilized Cells by ELISA
Most MCL1 protein molecules are localized at the mitochondria outer membrane and sequester pro-apoptotic proteins through binding of their BCL2 homology domain 3 (BH3 domain). MEB buffer (150 mM mannitol, 10 mM HEPES pH 7.5, 50 mM KCl, 20 μM EDTA, 20 μM EGTA, 5 mM potassium succinate, 0.1% protease-free BSA (SIGMA) with low dose digitonin (0.002%) permeabilizes plasma membrane while leaves live mitochondria, where MCL1 maintains its native localization and conformation. Unlike biophysical assays (e.g. TR-FRET) that use truncated recombinant MCL1 protein, this assay uses full length endogenous MCL1 protein at mitochondria outer membrane. It measures the interaction between MCL1 protein and biotinylated BIM BH3 peptide. Compounds can compete with BIM BH3 peptide to bind to MCL1 protein.
On day 1, RKO colon cancer cell line cells were plated at 0.8 million cells/ml, 100 μl/well in 96-well flat bottom TC plates (Corning). MCL1 antibody (Santa Cruz sc-12756) were diluted at 200 fold (final concentration 1 μg/ml) in carbonate buffer (Thermo Fisher Scientific, pH 9.6), and 50 μl of diluted antibody was added to each well of high bind ELISA plates ([…]). Each plate was tapped to make sure liquid covering entire bottom of wells and incubate at 37° C. overnight.
On the second day, MCL1 antibody was washed from ELISA plate. 250 μl Odyssey® Blocking Buffer (PBS) (Li-Cor) was added to each well, incubated at room temperature for at least 1 hour, then washed once with 250 μl 1×PBST. Plates with RKO cells were gently washed once with 100 μl/well PBS, once with 100 μl/well MEB buffer without digitonin, then 100 μl of MEB buffer with 0.002% digitonin was gently added to each well. Compounds were added with HP Tecan compound dispenser in 3-fold dilution series, highest dose 30 μM, 10-dose per compound in quadruplicates. Biotin-BIM peptide (synthesized by 21st Century) was added with HP Tecan compound dispenser at 0.2 μM immediately after the addition of compounds. Plates were rocked for 1 hour at room temperature. Then MEB buffer was aspirated and 50 μl of CHAPS buffer (50 mM Tris-Cl, pH 7.4, 150 mM NaCl, 1% CHAPS, 1 mM EDTA, 1 mM EGTA, cOmplete protease inhibitors (Roche), PhosSTOP (Roche)) was added to each well. Plates were rocked for 1 hour at 4° C., then 45 μl cell lysate from each well were transferred to ELISA plates coated with MCL1 antibody. Plates were incubated overnight in the cold room with rocking.
On the third day, ELISA plates were washed once with 250 μl 1×PBST. Streptavidin-poly-HRP (Thermo Fisher Scientific) was diluted to 20 ng/ml in Odyssey blocking buffer plus 0.05% Triton-100, and 100 μl was added to each well of the ELISA plate. Plates were incubated at room temperature for 1 hour with rocking, then washed with 100 μl 1×PBST for 3 times. Each SuperSignal ELISA Femto Maximum Sensitivity substrate was added to a 50-ml tube and mixed, then 100 μl of mixed substrate was added to each well. Plates were shaken for 1 minute then luminescence was measured by Envision plate reader […]. Signal of each well were normalized by no-compound control and no-cell control. IC50 was calculated using Graphic Pad PRISM software.

[3] = tested on: SUDHL10 cells; test: Induction of caspase-3/7 activity in SUDHL10 cells (Assay 4); format: cell-based
In short: (§2)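 Caspase-3/7 activity measured in DLBCL lines after 3 h compound exposure at 37 °C, following overnight plating; Caspase-Glo 3/7 luminescence read after 1 h at 37 °C. Medium-only background subtracted, values normalized to mean of DMSO-treated cells.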

[4] = tested on: SUDHL10 cells; test: Induction of cytotoxicity in SUDHL10 cells (Assay 6); format: cell-based; details: 5 h, CellTiter-Glo; read-out: Cytotox SUDHL10 IC50 (median)
In short: as §1

[5] = tested on: SUDHL5 cells; test: Induction of caspase-3/7 activity in SUDHL5 cells (Assay 4); format: cell-based
In short: as §2

[6] = tested on: SUDHL5 cells; test: Antiproliferation assay SUDHL5 (Assay 7); format: cell-based
In short: (§3)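 Growth inhibition is determined from ATP luminescence (CellTiter-Glo) following 72 h incubation with compound. Time-zero cells are measured the same way for baseline, and IC50s are referenced to DMSO controls.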

[7] = tested on: DMS-114 cells; test: Antiproliferation assay DMS-114 (Assay 7); format: cell-based; details: Homo sapiens; DMS-114 cells, 72 h, CellTiter-Glo; read-out: Antiproli DM-S114 IC50 median
Protocol: (§4) Assessment of the Anti-Proliferative Effect of Compounds in Different Cell Lines
(§5) The impact of compounds on the proliferation of different cell lines was assessed using the CellTiter-Glo® Luminescent Cell Viability reagent from Promega (G7573).
(§6) In parallel, cells were plated in a reference (day 0) plate for time zero determination. Cells were incubated in a humidified incubator at 37° C. overnight.
(§7) Rim wells were excluded. The cells were incubated for 72 h hours in a humidified incubator at 37° C. The day 0 plate was measured by adding 30 μL/well of CTG solution (CellTiter-Glo® Luminescent Cell Viability reagent, Promega G7573) to time zero wells in the reference plate followed by a 10 minutes incubation and luminescence reading at 0.1 ms. using the PHERAstar FS microplate reader (BMG Labtech).
(§8) After 72 h incubation, the treated plates were measured in the same way as the day 0 plate mentioned above. The Bella DRC Master Sheet was used to calculate IC50s, with CI=day 0 values and C0=DMSO control values.

[8] = tested on: SNU-16 cells; test: Antiproliferation assay SNU-16 (Assay 7); format: cell-based; details: Homo sapiens, SNU-16; 72 h, CellTiter-Glo; read-out: Antiproli SNU-16 IC50 median
Protocol: as §4, §5, §6, §7, §8

[9] = tested on: SNU-389 cells; test: Antiproliferation assay SNU-389 (Assay 7); format: cell-based; details: 72 h, CellTiter-Glo; read-out: Antiproli SNU-389 IC50
Protocol: as §4, §5, §6, §7, §8

[10] = tested on: SK-MEL-2 cells; test: Antiproliferation assay SK-MEL-2 (Assay 7); format: cell-based; details: Homo sapiens, SK-MEL-2; 72 h, CellTiter-Glo; read-out: Antiproli SK-MEL-2 IC50 median
Protocol: as §4, §5, §6, §7, §8

[11] = tested on: AMO-1 cells; test: Antiproliferation assay AMO-1 (Assay 7); format: cell-based; details: 72 h, CellTiter-Glo; read-out: Antiproli AMO-1 IC50 median
In short: as §3

[12] = tested on: PA-1 cells; test: Antiproliferation assay PA-1 (Assay 7); format: cell-based; details: Homo sapiens, PA-1; 72 h, CellTiter-Glo; read-out: Antiproli PA-1 IC50 median
Protocol: as §4, §5, §6, §7, §8

[13] = tested on: A-431 cells; test: Antiproliferation assay A-431 (Assay 7); format: cell-based; details: Homo sapiens, A-431; 72 h, CellTiter-Glo; read-out: Antiproli A-431 IC50 median
Protocol: as §4, §5, §6, §7, §8

[14] = tested on: HMC-1-8 cells; test: Antiproliferation assay HMC-1-8 (Assay 7); format: cell-based; details: 72 h, CellTiter-Glo; read-out: Antiproli HMC-1-8 IC50 median
In short: as §3

[15] = biological target: MCL-1 (Homo sapiens (Human), UniProt Q07820, K194A/K197A/R201A); test: Protein-protein interaction assay MCL-1/Noxa BH3 peptide (MCL-1 assay, TR-FRET); format: binding; details: MCL-1 Assay IC50 (median)
Sequence of MCL-1 (Q07820 whole entry, looked up, stated change not applied, the tested form may be a part): as the sequence (Q07820 whole entry) above
Protocol: The dose-dependent inhibition by the compounds described in this invention of the interaction between MCL-1 and the BH3 domain of Noxa (both human) was determined using a steady state binding competition assay with time-resolved fluorescence energy transfer (TR-FRET) readout. For that purpose MCL-1 (amino acids 173-321, N-terminal fused to Maltose Binding Protein (MBP) SEQ ID 1)) and a synthetic Noxa BH3-derived peptide of sequence Biotin-PEG2-PEG2-PAELEVE-Nva-[…]-amide (SEQ ID 2) served as protein receptor and tracer ligand respectively. The MBP-MCL-1 was purchased from Beryllium (Bedford, Mass., USA). The expression and purification of this protein construct has been described elsewhere (DOI:10.1371/journal.pone.0125010). The Noxa BH3-derived peptide can be obtained from e.g. Biosyntan (Berlin, Germany).
For that, 100-fold concentrated DMSO solutions were prepared by serial dilutions (1:3.4) of a 2 mM stock solution in a clear, 384-well microtiter plate (Greiner Bio-One, Frickenhausen, Germany). From there, 50 nl were transferred in a dark test plate (Greiner Bio-One, Frickenhausen, Germany). The assay was initiated by addition of 2 μL of a 2,5-fold concentrated MBP-MCL-1 solution (usually for a 1 nM end concentration in 5 μL reaction volume) in aqueous assay buffer [50 mM Tris/HCl pH 7, 100 mM sodium chloride (NaCl), 50 mM potassium fluoride (KF), 0.005% Tween-20, 2 mM DTT, 0.1% bovine gamma globulin (BGG)] to the compounds in the assay plate. This was followed by a 10-minute incubation step at 22° C. for pre-equilibration of the putative complex between MBP-MCL-1 and the compounds.
The mixture was incubated in the dark for one hour at 22° C. and then overnight at 4° C. The formation of MCL-1/Noxa complexes was determined by measuring the resonance energy transfer of the anti-MBP-Eu-cryptate antibody to the streptavidin-XL665 present in the reaction.
For that purpose, the fluorescence emission at 620 nm and 665 nm after excitation at 330-350 nm was measured in a TR-FRET measuring instrument, for instance a Rubystar or a Pherastar (both from BMG Lab Technologies, Offenburg, Germany) or a Viewlux (Perkin-Elmer). The ratio of the emission at 665 nm and at 622 nm was used as indicator of the amount of MCL-1/NOXA complexes present.
The resulting data (ratio) were normalized, taking 0% inhibition as the mean value of control measurements (usually 32 data points) where all reagents were included. In this case 50 nl DMSO were used instead of compounds. […] IC50 values were determined by regression analysis based on a 4 parameter equation (minimum, maximum, IC50, Hill; Y=Max+(Min−Max)/(1+(X/IC50)^Hill) using the Screener Software (Genedata).

[16] = caspase-3/7 induction, 3 h; read-out: Caspase SUDHL10 EC50 (median)
[17] = caspase-3/7 induction, 3 h; read-out: Caspase SUDHL5 EC50 (median)
[18] = 72 h, CellTiter-Glo; read-out: Antiproli SUDHL5 IC50 (median)

Compound	IC50 [1]	IC50 [2]	EC50 ([3]; read-out: Caspase SUDHL10 EC50 (median); caspase-3/7 induction, 3 h)	IC50 [4]	EC50 ([5]; read-out: Caspase SUDHL5 EC50 (median); caspase-3/7 induction, 3 h)	IC50 ([6]; read-out: Antiproli SUDHL5 IC50 (median); 72 h, CellTiter-Glo)	IC50 [7]	IC50 [8]	IC50 [9]	EC50 [3, 16]	IC50 [10]	EC50 [5, 17]	IC50 [11]	IC50 [6, 18]	IC50 [12]	IC50 [13]	IC50 [14]	IC50 [15]
Cc1c2c(nn1C)C(CCN1CCOCC1)OCCCCn1c(C(=O)O)c(CCCOc3cccc4ccccc34)c3ccc(F)c-2c31 (single isomer, unassigned; enantiomer 1) [Example 8, 4-fluoro-2,3-dimethyl-15-[2-(morpholin-4-yl)ethyl]-7-{3-[(naphthalen-1-yl)oxy]propyl}-2,10,11,12,13,15-hexahydropyrazolo[4′,3′:9,10][1,6]oxazacycloundecino[8,7,6-hi]indole-8-carboxylic Acid—N-ethylethanamine Salt (Enantiomer 1)]	0.076 µM	0.617 µM	0.15 µM	0.14 µM	0.064 µM	0.03 µM	–	–	–	–	–	–	–	–	–	–	–	–
CCc1c2c(nn1C)C(CCN1CCOCC1)N(C)CCCCn1c(C(=O)O)c(CCCOc3cccc4cc(F)ccc34)c3ccc(Cl)c-2c31 (single isomer, unassigned) [Example 94, 4-chloro-3-ethyl-7-{3-[(6-fluoronaphthalen-1-yl)oxy]propyl}-2,14-dimethyl-15-[2-(morpholin-4-yl)ethyl]-10,11,12,13,14,15-hexahydro-2H-pyrazolo[3′,4′:8,9][1,6]diazacycloundecino[10,11,1-hi]indole-8-carboxylic Acid]	0.04 µM	–	–	–	–	–	0.133 µM	0.221 µM	0.305 µM	0.023 µM	0.299 µM	0.036 µM	0.0413 µM	0.04 µM	0.218 µM	0.361 µM	0.777 µM	–
CCc1c2c(nn1C)C1CCCN1CCCCn1c(C(=O)O)c(CCCOc3cccc4cc(F)ccc34)c3ccc(Cl)c-2c31 (racemic) [Example 107, (rac)-17-chloro-1-ethyl-14-{3-[(6-fluoronaphthalen-1-yl)oxy]propyl}-2-methyl-3b,4,5,6,8,9,10,11-octahydro-2H-pyrazolo[3′,4′:8,9]pyrrolo[1′,2′:6,7][1,6]diazacycloundecino[10,11,1-hi]indole-13-carboxylic Acid]	0.69 µM	–	–	0.89 µM	–	–	–	–	–	1.2 µM	–	0.54 µM	1.34 µM	1.1 µM	–	–	6.64 µM	0.0011 µM
CCc1c2c(nn1C)C(CCN1CCOCC1)OCC(F)(F)CCn1c(C(=O)O)c(CCCOc3cccc4cc(F)ccc34)c3ccc(Cl)c-2c31 (single isomer, unassigned; (+)) [Example 90, (+)-4-chloro-3-ethyl-12,12-difluoro-7-{3-[(6-fluoronaphthalen-1-yl)oxy]propyl}-2-methyl-15-[2-(morpholin-4-yl)ethyl]-2,10,11,12,13,15-hexahydropyrazolo[4′,3′:9,10][1,6]oxazacycloundecino[8,7,6-hi]indole-8-carboxylic Acid]	0.03 µM	–	–	–	–	–	0.163 µM	1.11 µM	0.141 µM	0.013 µM	0.252 µM	0.027 µM	0.0242 µM	0.03 µM	0.422 µM	0.209 µM	0.416 µM	–
